In patent publication US20060088942A1, “Measuring nitric oxide in blood gases and treatments based thereon” (priority 2002, published 2006):

What was measured:
[1] = Infusion in patient with unstable angina (Example II); format: in vivo, human
Source text: A person is admitted to a hospital with unstable angina. The patient is given I.V. nitroglycerin, heparin and a beta blocker. However, the patient continues to experience chest pain at rest. The patient's normal NO level is known from past testing. […] Infusion at a rate of 5 nmol/min of NO in 0.9% NaCl is effected. The chest pain resolves.

[2] = Infusion in patient with primary pulmonary hypertension class II (Example III); format: in vivo, human
Source text: A person with primary pulmonary hypertension class II presents complaining with shortness of breath. The patient's normal NO level is know from prior testing. […] Infusion of NO in 0.9% NaCl at a rate of 5 nmol/min of NO is effected. The shortness of breath symptom resolves. After three days of therapy, pulmonary artery pressure has dropped 5 mm of mercury.

[3] = test system: Red cells; assay: Storage of red cells incubated with NO at weekly intervals (Example VI); format: cell-based; details: 1:250 molar ratio NO to hemoglobin, 10 minutes at weekly intervals; at 8 weeks
Protocol: Red cells are incubated at a molar ratio of 1:250 NO to hemoglobin for 10 minutes at weekly intervals. At 8 weeks, NO levels and vasodilator response are preserved.

[4] = Transfusion of NO-doped blood unit in patient with severe coronary artery disease (Example VII); format: in vivo, human; details: person; second blood unit doped with NO, 1:250 molar ratio of NO to hemoglobin
[5] = test system: outdated red blood cells; assay: Organ chamber bioassay of vasodilator response at low pO2, outdated red blood cells (Example V); format: cell-based; details: for relaxations: 1:250 molar ratio NO or nitrite to hemoglobin, deoxygenated with argon, then oxygenated by air, FIG. 3
Source text: Samples from each set were deoxygenated by bubbling argon gas therethrough and then admixed with PBS, PBS with NO dissolved therein or PBS with sodium nitrite dissolved therein. The treatments loaded the red blood cells with 1:250 molar ratio NO or nitrite to hemoglobin. The red blood cells were then oxygenated by exposure to air.

[6] = test system: native fresh red blood cells
Protocol: The samples were deoxygenated by placing them in a bioassay bath at low pO2. Then, in paired samples, sodium nitrite (1:200 molar ratio of nitite to hemoglobin in phosphate buffered saline) was added to the deoxygenated red blood cells for 10 minutes. The samples were then re-oxygenated by reintroducing air followed by shaking.

[7] = target: hemoglobin (Homo sapiens, UniProt P68871+P69905); details: PBS pH 7.4, 300 μM nitrite, heme 1 mM; compared to SNO-oxyhemoglobin samples
Protocol: For assay by EPR, spectroscopy was carried out as described in Gow, A. J., et al, Proc. Natl. Acad. Scie. […] SNO-oxyhemoglobin samples (0.5 mM protein) for comparison were prepared as described in Jia, L., et al, Nature, 380, 221-226 (1996).
Comparison was to SNO-oxyhemoglobin samples (0.5 mM protein) prepared as described in Jia, L., et al, Nature 380, 221-226 (1996).

[8] = anaerobic saturated solution in saline infused at 100 nmol/min

Sequence of hemoglobin (P69905 2-142 limits assumed): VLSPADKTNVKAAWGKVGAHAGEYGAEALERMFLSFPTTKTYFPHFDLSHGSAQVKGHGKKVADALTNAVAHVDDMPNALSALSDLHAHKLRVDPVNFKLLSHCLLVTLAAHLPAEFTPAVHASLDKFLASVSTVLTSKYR
Sequence of hemoglobin (P68871 2-147 limits assumed): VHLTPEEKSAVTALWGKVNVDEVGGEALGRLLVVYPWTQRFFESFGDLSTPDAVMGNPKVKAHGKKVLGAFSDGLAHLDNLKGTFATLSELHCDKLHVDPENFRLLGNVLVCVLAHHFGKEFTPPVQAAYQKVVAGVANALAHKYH

SMILES | chest pain ([1]; person, unstable angina, infusion 5 nmol/min of NO in 0.9% NaCl) | drop of pulmonary artery pressure ([2]; after three days of therapy, NO 5 nmol/min) | shortness of breath symptom ([2]; person, infusion of NO in 0.9% NaCl at 5 nmol/min) | vasodilator response [3] | chest pain on transfusion [4] | relaxations [5] | chest pain ([1]; nitrite additionally given at 100 nmol/min with the NO infusion) | vasodilator response [6] | oxygen delivery improving activity identified with NO [7] | oxygen delivery [8] | vasodilator response ([5]; 1:200 molar ratio nitrite to hemoglobin in PBS, added to deoxygenated cells for 10 minutes, then re-oxygenated, FIG. 2)
[N]=O [NO, nitric oxide] | resolves | 5 mm of mercury | resolves | preserved | not experienced | improved and effectively normalized |  |  |  |  | 
O=NO [nitrite] |  |  |  |  |  | improved and effectively normalized | resolves more quickly | no effect | facilitated |  | 
O=NO [sodium nitrite] |  |  |  |  |  |  |  |  |  | Improved | normalize
